Assay results: patent US10526327B2, “Histone demethylase inhibitors” (CELGENE QUANTICEL RESEARCH, INC., priority 2013, dated 2020)

Experiments:
Jarid1B = biological target: T1, Jarid1B (Homo sapiens, UniProt Q9UGL1); experiment: Jarid1B in vitro enzyme inhibition assay (TR-FRET); assay type: biochemical
T1 construct: purchased BPS Bioscience or custom made by MolecularThroughput 50121
T1 sequence (Q9UGL1 2-751): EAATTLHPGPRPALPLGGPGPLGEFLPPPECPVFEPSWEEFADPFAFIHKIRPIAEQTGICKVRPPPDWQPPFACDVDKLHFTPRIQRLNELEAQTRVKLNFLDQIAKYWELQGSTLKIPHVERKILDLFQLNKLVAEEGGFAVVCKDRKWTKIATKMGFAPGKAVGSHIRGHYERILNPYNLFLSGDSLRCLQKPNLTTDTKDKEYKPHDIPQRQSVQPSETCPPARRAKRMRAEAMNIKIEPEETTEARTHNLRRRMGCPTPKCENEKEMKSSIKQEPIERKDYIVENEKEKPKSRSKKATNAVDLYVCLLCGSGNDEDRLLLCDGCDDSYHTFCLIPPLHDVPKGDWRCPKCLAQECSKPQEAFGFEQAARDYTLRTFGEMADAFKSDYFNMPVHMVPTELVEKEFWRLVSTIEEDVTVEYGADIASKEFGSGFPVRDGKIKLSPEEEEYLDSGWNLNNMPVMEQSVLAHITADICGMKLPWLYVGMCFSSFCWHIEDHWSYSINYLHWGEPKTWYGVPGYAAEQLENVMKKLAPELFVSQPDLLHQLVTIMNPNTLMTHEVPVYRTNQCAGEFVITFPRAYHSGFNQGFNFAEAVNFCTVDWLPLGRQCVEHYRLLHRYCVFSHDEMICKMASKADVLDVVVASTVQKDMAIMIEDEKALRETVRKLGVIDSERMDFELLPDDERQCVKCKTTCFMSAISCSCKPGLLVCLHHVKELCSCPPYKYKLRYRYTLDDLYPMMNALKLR
In short: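 Jarid1B (AA 2-751, baculovirus-expressed) at 0.8 nM with 300 nM biotin-H3K4me3 peptide and 2 μM α-ketoglutarate in HEPES pH 7.3 with ascorbate and Fe(II), 30 min at room temperature. Stopped with EDTA; H3K4me1-2 product detected by TR-FRET (665/615 ratio) and IC50 fitted from 11-point dilutions.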

JMJD2C = biological target: T2, JMJD2C (Homo sapiens, UniProt Q9H3R0); experiment: JMJD2C in vitro enzyme inhibition assay (TR-FRET); assay type: biochemical
T2 construct: purchased BPS Bioscience 50105
T2 sequence (Q9H3R0 2-372): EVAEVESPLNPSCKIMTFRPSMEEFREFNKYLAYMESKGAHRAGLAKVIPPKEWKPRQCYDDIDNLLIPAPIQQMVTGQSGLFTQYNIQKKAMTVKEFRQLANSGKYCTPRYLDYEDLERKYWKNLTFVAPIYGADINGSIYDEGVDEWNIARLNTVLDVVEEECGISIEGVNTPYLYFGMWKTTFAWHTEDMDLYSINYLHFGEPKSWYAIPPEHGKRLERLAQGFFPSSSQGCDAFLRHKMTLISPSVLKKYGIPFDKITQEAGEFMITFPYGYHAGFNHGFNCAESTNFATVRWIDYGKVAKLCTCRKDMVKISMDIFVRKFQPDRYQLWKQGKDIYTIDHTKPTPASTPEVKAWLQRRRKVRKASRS
In short: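 Baculovirus-expressed human JMJD2C (AA 2-372) at 0.3 nM demethylated 300 nM biotin-H3K9me3 peptide with 2 μM alpha-ketoglutarate in HEPES pH 7.3 containing ascorbate and Fe(II), 30 min at room temperature. EDTA-stopped product was read by TR-FRET with Eu-anti-H3K9me2 and streptavidin-APC; 665/615 ratios from 11-point dilutions gave IC50.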

SMILES: O=S(=O)(C1CC1)N1CC[C@@H](n2cc(Oc3nc(O)c4ccncc4n3)cn2)C1 [Example 127, 2-({1-[(3R)-1-(cyclopropanesulfonyl)pyrrolidin-3-yl]-1H-pyrazol-4-yl}oxy)pyrido[3,4-d]pyrimidin-4-ol]
- IC50 (Jarid1B): ≤ 100 nM
- IC50 (JMJD2C): ≤ 100 nM

SMILES: O=S(=O)(c1ccccc1)N1CC[C@@H](n2cc(Oc3nc(O)c4ccncc4n3)cn2)C1 [Example 128, 2-({1-[(3R)-1-(benzenesulfonyl)pyrrolidin-3-yl]-1H-pyrazol-4-yl}oxy)pyrido[3,4-d]pyrimidin-4-ol]
- IC50 (Jarid1B): ≤ 100 nM
- IC50 (JMJD2C): ≤ 100 nM

SMILES: CC(=O)N1CC[C@@H](n2cc(Oc3nc(O)c4ccncc4n3)cn2)C1 [Example 129, 1-[(3R)-3-[4-({4-hydroxypyrido[3,4-d]pyrimidin-2-yl}oxy)-1H-pyrazol-1-yl]pyrrolidin-1-yl]ethan-1-one]
- IC50 (Jarid1B): ≤ 100 nM
- IC50 (JMJD2C): ≤ 100 nM

SMILES: N#CCC(=O)N1CC[C@@H](n2cc(Oc3nc(O)c4ccncc4n3)cn2)C1 [Example 130, 3-[(3R)-3-[4-({4-hydroxypyrido[3,4-d]pyrimidin-2-yl}oxy)-1H-pyrazol-1-yl]pyrrolidin-1-yl]-3-oxopropanenitrile]
- IC50 (Jarid1B): ≤ 100 nM
- IC50 (JMJD2C): ≤ 100 nM

SMILES: O=C(C1CC1)N1CC[C@@H](n2cc(Oc3nc(O)c4ccncc4n3)cn2)C1 [Example 131, 2-({1-[(3R)-1-cyclopropanecarbonylpyrrolidin-3-yl]-1H-pyrazol-4-yl}oxy)pyrido[3,4-d]pyrimidin-4-ol]
- IC50 (Jarid1B): ≤ 100 nM
- IC50 (JMJD2C): ≤ 100 nM

SMILES: O=C(c1ccccc1)N1CC[C@@H](n2cc(Oc3nc(O)c4ccncc4n3)cn2)C1 [Example 132, 2-({1-[(3R)-1-benzoylpyrrolidin-3-yl]-1H-pyrazol-4-yl}oxy)pyrido[3,4-d]pyrimidin-4-ol]
- IC50 (Jarid1B): ≤ 100 nM
- IC50 (JMJD2C): ≤ 100 nM

SMILES: Oc1nc(Oc2cnn([C@@H]3CCN(Cc4ccccc4)C3)c2)nc2cnccc12 [Example 133, 2-({1-[(3R)-1-benzylpyrrolidin-3-yl]-1H-pyrazol-4-yl}oxy)pyrido[3,4-d]pyrimidin-4-ol]
- IC50 (Jarid1B): ≤ 100 nM
- IC50 (JMJD2C): ≤ 100 nM

SMILES: Oc1nc(Oc2cnn([C@@H]3CCN(c4ccc(F)cc4)C3)c2)nc2cnccc12 [Example 134, 2-({1-[(3R)-1-(4-fluorophenyl)pyrrolidin-3-yl]-1H-pyrazol-4-yl}oxy)pyrido[3,4-d]pyrimidin-4-ol]
- IC50 (Jarid1B): ≤ 100 nM
- IC50 (JMJD2C): ≤ 100 nM

SMILES: Oc1nc(Oc2cnn([C@H]3CCNC3)c2)nc2cnccc12 [Example 135, 2-({1-[(3S)-pyrrolidin-3-yl]-1H-pyrazol-4-yl}oxy)pyrido[3,4-d]pyrimidin-4-ol]
- IC50 (Jarid1B): ≤ 100 nM
- IC50 (JMJD2C): ≤ 100 nM

SMILES: CCS(=O)(=O)N1CC[C@H](n2cc(Oc3nc(O)c4ccncc4n3)cn2)C1 [Example 136, 2-({1-[(3S)-1-(ethanesulfonyl)pyrrolidin-3-yl]-1H-pyrazol-4-yl}oxy)pyrido[3,4-d]pyrimidin-4-ol]
- IC50 (Jarid1B): ≤ 100 nM
- IC50 (JMJD2C): ≤ 100 nM

SMILES: O=S(=O)(C1CC1)N1CC[C@H](n2cc(Oc3nc(O)c4ccncc4n3)cn2)C1 [Example 137, 2-({1-[(3S)-1-(cyclopropanesulfonyl)pyrrolidin-3-yl]-1H-pyrazol-4-yl}oxy)pyrido[3,4-d]pyrimidin-4-ol]
- IC50 (Jarid1B): ≤ 100 nM
- IC50 (JMJD2C): ≤ 100 nM

SMILES: O=S(=O)(c1ccccc1)N1CC[C@H](n2cc(Oc3nc(O)c4ccncc4n3)cn2)C1 [Example 138, 2-({1-[(3S)-1-(benzenesulfonyl)pyrrolidin-3-yl]-1H-pyrazol-4-yl}oxy)pyrido[3,4-d]pyrimidin-4-ol]
- IC50 (Jarid1B): ≤ 100 nM
- IC50 (JMJD2C): ≤ 100 nM

SMILES: CC(=O)N1CC[C@H](n2cc(Oc3nc(O)c4ccncc4n3)cn2)C1 [Example 139, 1-[(3S)-3-[4-({4-hydroxypyrido[3,4-d]pyrimidin-2-yl}oxy)-1H-pyrazol-1-yl]pyrrolidin-1-yl]ethan-1-one]
- IC50 (Jarid1B): ≤ 100 nM
- IC50 (JMJD2C): ≤ 100 nM

SMILES: N#CCC(=O)N1CC[C@H](n2cc(Oc3nc(O)c4ccncc4n3)cn2)C1 [Example 140, 3-[(3S)-3-[4-({4-hydroxypyrido[3,4-d]pyrimidin-2-yl}oxy)-1H-pyrazol-1-yl]pyrrolidin-1-yl]-3-oxopropanenitrile]
- IC50 (Jarid1B): ≤ 100 nM
- IC50 (JMJD2C): ≤ 100 nM

SMILES: O=C(C1CC1)N1CC[C@H](n2cc(Oc3nc(O)c4ccncc4n3)cn2)C1 [Example 141, 2-({1-[(3S)-1-cyclopropanecarbonylpyrrolidin-3-yl]-1H-pyrazol-4-yl}oxy)pyrido[3,4-d]pyrimidin-4-ol]
- IC50 (Jarid1B): ≤ 100 nM
- IC50 (JMJD2C): ≤ 100 nM

SMILES: O=C(c1ccccc1)N1CC[C@H](n2cc(Oc3nc(O)c4ccncc4n3)cn2)C1 [Example 142, 2-({1-[(3S)-1-benzoylpyrrolidin-3-yl]-1H-pyrazol-4-yl}oxy)pyrido[3,4-d]pyrimidin-4-ol]
- IC50 (Jarid1B): ≤ 100 nM
- IC50 (JMJD2C): ≤ 100 nM

SMILES: O=C(C1CCNCC1)N1CC[C@H](n2cc(Oc3nc(O)c4ccncc4n3)cn2)C1 [Example 143, 2-({1-[(3S)-1-(piperidine-4-carbonyl)pyrrolidin-3-yl]-1H-pyrazol-4-yl}oxy)pyrido[3,4-d]pyrimidin-4-ol]
- IC50 (Jarid1B): ≤ 100 nM
- IC50 (JMJD2C): ≤ 100 nM

SMILES: CNCC(=O)N1CC[C@H](n2cc(Oc3nc(O)c4ccncc4n3)cn2)C1 [Example 144, 1-[(3S)-3-[4-({4-hydroxypyrido[3,4-d]pyrimidin-2-yl}oxy)-1H-pyrazol-1-yl]pyrrolidin-1-yl]-2-(methylamino)ethan-1-one]
- IC50 (Jarid1B): ≤ 100 nM
- IC50 (JMJD2C): ≤ 100 nM

SMILES: Oc1nc(Oc2cnn([C@H]3CCN(c4ccccc4)C3)c2)nc2cnccc12 [Example 145, 2-({1-[(3S)-1-phenylpyrrolidin-3-yl]-1H-pyrazol-4-yl}oxy)pyrido[3,4-d]pyrimidin-4-ol]
- IC50 (Jarid1B): ≤ 100 nM
- IC50 (JMJD2C): ≤ 100 nM

SMILES: Oc1nc(Oc2cnn([C@H]3CCN(c4ccc(F)cc4)C3)c2)nc2cnccc12 [Example 146, 2-({1-[(3S)-1-(4-fluorophenyl)pyrrolidin-3-yl]-1H-pyrazol-4-yl}oxy)pyrido[3,4-d]pyrimidin-4-ol]
- IC50 (Jarid1B): ≤ 100 nM
- IC50 (JMJD2C): ≤ 100 nM

SMILES: Oc1nc(Oc2cnn([C@H]3CCN(c4ccccc4F)C3)c2)nc2cnccc12 [Example 147, 2-({1-[(3S)-1-(2-fluorophenyl)pyrrolidin-3-yl]-1H-pyrazol-4-yl}oxy)pyrido[3,4-d]pyrimidin-4-ol]
- IC50 (Jarid1B): ≤ 100 nM
- IC50 (JMJD2C): ≤ 100 nM

SMILES: Oc1nc(Oc2cnn([C@H]3CCN(c4ccc(Cl)cc4)C3)c2)nc2cnccc12 [Example 148, 2-({1-[(3S)-1-(4-chlorophenyl)pyrrolidin-3-yl]-1H-pyrazol-4-yl}oxy)pyrido[3,4-d]pyrimidin-4-ol]
- IC50 (Jarid1B): ≤ 100 nM
- IC50 (JMJD2C): ≤ 100 nM

SMILES: Oc1nc(Oc2cnn([C@@H]3CCCNC3)c2)nc2cnccc12 [Example 149, 2-({1-[(3R)-piperidin-3-yl]-1H-pyrazol-4-yl}oxy)pyrido[3,4-d]pyrimidin-4-ol]
- IC50 (Jarid1B): ≤ 100 nM
- IC50 (JMJD2C): ≤ 100 nM

SMILES: CCS(=O)(=O)N1CCC[C@@H](n2cc(Oc3nc(O)c4ccncc4n3)cn2)C1 [Example 150, 2-({1-[(3R)-1-(ethanesulfonyl)piperidin-3-yl]-1H-pyrazol-4-yl}oxy)pyrido[3,4-d]pyrimidin-4-ol]
- IC50 (Jarid1B): ≤ 100 nM
- IC50 (JMJD2C): ≤ 100 nM

SMILES: O=S(=O)(c1ccccc1)N1CCC[C@@H](n2cc(Oc3nc(O)c4ccncc4n3)cn2)C1 [Example 152, 2-({1-[(3R)-1-(benzenesulfonyl)piperidin-3-yl]-1H-pyrazol-4-yl}oxy)pyrido[3,4-d]pyrimidin-4-ol]
- IC50 (Jarid1B): ≤ 100 nM
- IC50 (JMJD2C): ≤ 100 nM

SMILES: CC(=O)N1CCC[C@@H](n2cc(Oc3nc(O)c4ccncc4n3)cn2)C1 [Example 153, 1-[(3R)-3-[4-({4-hydroxypyrido[3,4-d]pyrimidin-2-yl}oxy)-1H-pyrazol-1-yl]piperidin-1-yl]ethan-1-one]
- IC50 (Jarid1B): ≤ 100 nM
- IC50 (JMJD2C): ≤ 100 nM

SMILES: N#CCC(=O)N1CCC[C@@H](n2cc(Oc3nc(O)c4ccncc4n3)cn2)C1 [Example 154, 3-[(3R)-3-[4-({4-hydroxypyrido[3,4-d]pyrimidin-2-yl}oxy)-1H-pyrazol-1-yl]piperidin-1-yl]-3-oxopropanenitrile]
- IC50 (Jarid1B): ≤ 100 nM
- IC50 (JMJD2C): ≤ 100 nM
